# Reference: patent publication US10294202B2, “Pyrrolidinones as herbicides” (FMC Corporation, priority 2013, dated 2019)
# Experiments:
# sedge, umbrella = test: Test B flooded paddy test; assay type: in vivo, Cyperus difformis; settings: Flood, scale of 0 to 100 where 0 is no effect and 100 is complete control
# How it was run: (§1)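 Paddy-water application at a 3 cm flood, young plants having two leaves. Water level maintained; greenhouse, 13–15 days; visual 0–100 control rating.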
# barnyardgrass [1] = test: Test A pre-/postemergence herbicide test; assay type: in vivo, Echinochloa crus-galli
# How it was run: (§2)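 Approximately 10 days after treatment in the greenhouse, plants were compared with untreated controls and given a 0–100 visual injury rating. Applications: preemergence directed soil spray; postemergence on 2–10 cm plants at the one- to two-leaf stage.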
# rice = test: Test B flooded paddy test; assay type: in vivo, Oryza sativa; settings: Flood, scale of 0 to 100 where 0 is no effect and 100 is complete control
# How it was run: as §1
# corn = test: Test A pre-/postemergence herbicide test; assay type: in vivo, Zea mays
# How it was run: as §2
# morningglory = test: Test A pre-/postemergence herbicide test; assay type: in vivo, Ipomoea spp.
# How it was run: as §2
# barnyardgrass [2] = test: Test B flooded paddy test; assay type: in vivo, Echinochloa crus-galli; settings: Flood, scale of 0 to 100 where 0 is no effect and 100 is complete control
# How it was run: as §1
# giant foxtail = test: Test A pre-/postemergence herbicide test; assay type: in vivo, Setaria faberii
# How it was run: as §2
# crabgrass, large = test: Test A pre-/postemergence herbicide test; assay type: in vivo, Digitaria sanguinalis
# How it was run: as §2
# pigweed = test: Test A pre-/postemergence herbicide test; assay type: in vivo, Amaranthus retroflexus
# How it was run: as §2
# velvetleaf = test: Test A pre-/postemergence herbicide test; assay type: in vivo, Abutilon theophrasti
# How it was run: as §2
# wheat = test: Test A pre-/postemergence herbicide test; assay type: in vivo, Triticum aestivum
# How it was run: as §2
# ducksalad = test: Test B flooded paddy test; assay type: in vivo, Heteranthera limosa; settings: Flood, scale of 0 to 100 where 0 is no effect and 100 is complete control
# How it was run: as §1
# [3] = Postemergence, 125 g ai/ha, 0 to 100 scale, 0 is no effect, 100 is complete control
# [4] = Postemergence, 500 g ai/ha, 0 to 100 scale (0 no effect, 100 complete control)
# [5] = Preemergence, 125 g ai/ha, 0 to 100 scale where 0 is no effect and 100 is complete control
# [6] = preemergence, 500 g ai/ha, 0 to 100 scale, 0 is no effect and 100 is complete control
# [7] = Postemergence, 125 g ai/ha, visual rating on 0 to 100 scale (0 no effect, 100 complete control), approx. 10 days
# [8] = Postemergence, 125 g ai/ha, 0 to 100 scale, 0 no effect, 100 complete control
# [9] = Preemergence, 125 g ai/ha, visual rating on 0 to 100 scale (0 no effect, 100 complete control)
# [10] = preemergence, 500 g ai/ha, 0 to 100 scale
# [11] = Postemergence, 1000 g ai/ha, 0 to 100 scale (0 no effect, 100 complete control)
# [12] = Preemergence, 1000 g ai/ha, visual rating on 0 to 100 scale (0 no effect, 100 complete control), approx. 10 days
smiles,measurement,setting,value
O=C1NCC(c2ccc(C(F)(F)F)cc2F)C1C(=O)Nc1ccccc1C(F)(F)F (racemic) [Compound 261],"Plant response rating, Sedge, Umbrella","sedge, umbrella; 1000 g ai/ha",0
same,"Plant response rating, Barnyardgrass",barnyardgrass [1]; [3],0
same,"Plant response rating, Barnyardgrass",barnyardgrass [1]; [4],50
same,"Plant response rating, Barnyardgrass",barnyardgrass [1]; [5],0
same,"Plant response rating, Barnyardgrass",barnyardgrass [1]; [6],0
same,"Plant response rating, Rice",rice; 1000 g ai/ha,0
same,"Plant response rating, Corn",corn; [3],0
same,"Plant response rating, Corn",corn; [4],0
same,"Plant response rating, Corn",corn; [5],0
same,"Plant response rating, Corn",corn; [6],0
same,"Plant response rating, Morningglory",morningglory; [3],0
same,"Plant response rating, Morningglory",morningglory; [4],0
same,"Plant response rating, Morningglory",morningglory; [5],0
same,"Plant response rating, Morningglory",morningglory; [6],0
same,"Plant response rating, Barnyardgrass",barnyardgrass [2]; 1000 g ai/ha,0
same,"Plant response rating, Foxtail, Giant",giant foxtail; [3],0
same,"Plant response rating, Foxtail, Giant",giant foxtail; [4],60
same,"Plant response rating, Foxtail, Giant",giant foxtail; [5],10
same,"Plant response rating, Foxtail, Giant",giant foxtail; [6],70
same,"Plant response rating, Crabgrass, Large","crabgrass, large; [3]",70
same,"Plant response rating, Crabgrass, Large","crabgrass, large; [4]",80
same,"Plant response rating, Crabgrass, Large","crabgrass, large; [5]",80
same,"Plant response rating, Crabgrass, Large","crabgrass, large; [6]",90
same,"Plant response rating, Pigweed",pigweed; [3],0
same,"Plant response rating, Pigweed",pigweed; [4],40
same,"Plant response rating, Pigweed",pigweed; [5],0
same,"Plant response rating, Pigweed",pigweed; [6],0
same,"Plant response rating, Velvetleaf",velvetleaf; [3],0
same,"Plant response rating, Velvetleaf",velvetleaf; [4],30
same,"Plant response rating, Velvetleaf",velvetleaf; [5],0
same,"Plant response rating, Velvetleaf",velvetleaf; [6],0
same,"Plant response rating, Wheat",wheat; [3],0
same,"Plant response rating, Wheat",wheat; [4],0
same,"Plant response rating, Wheat",wheat; [5],0
same,"Plant response rating, Wheat",wheat; [6],0
same,"Plant response rating, Ducksalad",ducksalad; 1000 g ai/ha,90
O=C1NCC(c2ccc(Cl)c(C(F)(F)F)c2)C1C(=O)Nc1ccccc1F (racemic) [Compound 267],"Plant response rating, Sedge, Umbrella","sedge, umbrella; 1000 g ai/ha",0
same,"Plant response rating, Barnyardgrass",barnyardgrass [1]; [3],70
same,"Plant response rating, Barnyardgrass",barnyardgrass [1]; [4],80
same,"Plant response rating, Barnyardgrass",barnyardgrass [1]; [5],70
same,"Plant response rating, Barnyardgrass",barnyardgrass [1]; [6],80
same,"Plant response rating, Rice",rice; 1000 g ai/ha,15
same,"Plant response rating, Corn",corn; [3],40
same,"Plant response rating, Corn",corn; [4],70
same,"Plant response rating, Corn",corn; [5],0
same,"Plant response rating, Corn",corn; [6],0
same,"Plant response rating, Morningglory",morningglory; [7],0
same,"Plant response rating, Morningglory",morningglory; [4],60
same,"Plant response rating, Morningglory",morningglory; [5],0
same,"Plant response rating, Morningglory",morningglory; [6],0
same,"Plant response rating, Barnyardgrass",barnyardgrass [2]; 1000 g ai/ha,20
same,"Plant response rating, Foxtail, Giant",giant foxtail; [3],70
same,"Plant response rating, Foxtail, Giant",giant foxtail; [4],80
same,"Plant response rating, Foxtail, Giant",giant foxtail; [5],80
same,"Plant response rating, Foxtail, Giant",giant foxtail; [6],90
same,"Plant response rating, Crabgrass, Large","crabgrass, large; [3]",80
same,"Plant response rating, Crabgrass, Large","crabgrass, large; [4]",90
same,"Plant response rating, Crabgrass, Large","crabgrass, large; [5]",90
same,"Plant response rating, Crabgrass, Large","crabgrass, large; [6]",90
same,"Plant response rating, Pigweed",pigweed; [7],0
same,"Plant response rating, Pigweed",pigweed; [4],60
same,"Plant response rating, Pigweed",pigweed; [5],0
same,"Plant response rating, Pigweed",pigweed; [6],50
same,"Plant response rating, Velvetleaf",velvetleaf; [7],30
same,"Plant response rating, Velvetleaf",velvetleaf; [5],0
same,"Plant response rating, Velvetleaf",velvetleaf; [6],0
same,"Plant response rating, Wheat",wheat; [7],0
same,"Plant response rating, Wheat",wheat; [4],0
same,"Plant response rating, Wheat",wheat; [5],0
same,"Plant response rating, Wheat",wheat; [6],0
same,"Plant response rating, Ducksalad",ducksalad; 1000 g ai/ha,100
Cc1cccc(C2CN(C(=O)OC(C)(C)C)C(=O)C2C(=O)Nc2ccccc2F)c1 (stereo not drawn) [Compound 37],"Plant response rating, Sedge, Umbrella","sedge, umbrella; 250 g ai/ha",20
same,"Plant response rating, Barnyardgrass",barnyardgrass [1]; [8],0
same,"Plant response rating, Barnyardgrass",barnyardgrass [1]; [4],50
same,Barnyardgrass plant response rating,barnyardgrass [1]; [9],0
same,"Plant response rating, Barnyardgrass","barnyardgrass [1]; preemergence, 500 g ai/ha, 0 to 100 scale (0 no effect, 100 complete control)",80
same,"Plant response rating, Rice",rice; 250 g ai/ha,0
same,"Plant response rating, Corn",corn; [8],0
same,"Plant response rating, Corn",corn; [4],0
same,Corn plant response rating,corn; [9],0
same,"Plant response rating, Corn",corn; [10],0
same,"Plant response rating, Morningglory",morningglory; [8],0
same,"Plant response rating, Morningglory",morningglory; [4],0
same,Morningglory plant response rating,morningglory; [9],0
same,"Plant response rating, Morningglory",morningglory; [10],0
same,"Plant response rating, Barnyardgrass",barnyardgrass [2]; 250 g ai/ha,0
same,"Plant response rating, Foxtail, Giant",giant foxtail; [8],0
same,"Plant response rating, Foxtail, Giant",giant foxtail; [4],20
same,"Foxtail, Giant plant response rating",giant foxtail; [9],0
same,"Plant response rating, Foxtail, Giant",giant foxtail; [10],20
same,"Plant response rating, Crabgrass, Large","crabgrass, large; [8]",0
same,"Plant response rating, Crabgrass, Large","crabgrass, large; [4]",20
same,"Crabgrass, Large plant response rating","crabgrass, large; [9]",0
same,"Plant response rating, Crabgrass, Large","crabgrass, large; [10]",80
same,"Plant response rating, Pigweed",pigweed; [8],0
same,"Plant response rating, Pigweed",pigweed; [4],0
same,Pigweed plant response rating,pigweed; [9],0
same,"Plant response rating, Pigweed",pigweed; [10],0
same,"Plant response rating, Velvetleaf",velvetleaf; [8],0
same,"Plant response rating, Velvetleaf",velvetleaf; [4],0
same,Velvetleaf plant response rating,velvetleaf; [9],0
same,"Plant response rating, Velvetleaf",velvetleaf; [10],0
same,"Plant response rating, Wheat",wheat; [8],0
same,"Plant response rating, Wheat",wheat; [4],0
same,Wheat plant response rating,wheat; [9],0
same,"Plant response rating, Wheat",wheat; [10],30
same,"Plant response rating, Ducksalad",ducksalad; 250 g ai/ha,0
O=C1NCC(c2ccc(Cl)c(Cl)c2)C1C(=O)Nc1ccccc1[N+](=O)[O-] (stereo not drawn) [Compound 39],"Plant response rating, Sedge, Umbrella","sedge, umbrella; 250 g ai/ha",0
same,"Plant response rating, Barnyardgrass",barnyardgrass [1]; [11],50
same,"Plant response rating, Barnyardgrass",barnyardgrass [1]; [12],70
same,"Plant response rating, Rice",rice; 250 g ai/ha,0
same,"Plant response rating, Corn",corn; [11],0
same,"Plant response rating, Corn",corn; [12],0
same,"Plant response rating, Morningglory",morningglory; [11],10
same,"Plant response rating, Morningglory",morningglory; [12],0
same,"Plant response rating, Barnyardgrass",barnyardgrass [2]; 250 g ai/ha,0
same,"Plant response rating, Foxtail, Giant",giant foxtail; [11],70
same,"Plant response rating, Foxtail, Giant",giant foxtail; [12],80
same,"Plant response rating, Crabgrass, Large","crabgrass, large; [11]",80
same,"Plant response rating, Crabgrass, Large","crabgrass, large; [12]",90
same,"Plant response rating, Pigweed",pigweed; [11],50
same,"Plant response rating, Pigweed",pigweed; [12],0
same,"Plant response rating, Velvetleaf",velvetleaf; [11],10
same,"Plant response rating, Velvetleaf",velvetleaf; [12],0
same,"Plant response rating, Wheat",wheat; [11],40
same,"Plant response rating, Wheat",wheat; [12],0
same,"Plant response rating, Ducksalad",ducksalad; 250 g ai/ha,0
Cc1ccccc1NC(=O)C1C(=O)NCC1c1ccc(Cl)c(Cl)c1 (stereo not drawn) [Compound 40],"Plant response rating, Sedge, Umbrella","sedge, umbrella; 250 g ai/ha",0
same,"Plant response rating, Barnyardgrass",barnyardgrass [1]; [11],80
same,"Plant response rating, Barnyardgrass",barnyardgrass [1]; [12],90
same,"Plant response rating, Rice",rice; 250 g ai/ha,0
same,"Plant response rating, Corn",corn; [11],20
same,"Plant response rating, Corn",corn; [12],30
same,"Plant response rating, Morningglory",morningglory; [11],10
same,"Plant response rating, Morningglory",morningglory; [12],0
same,"Plant response rating, Barnyardgrass",barnyardgrass [2]; 250 g ai/ha,0
same,"Plant response rating, Foxtail, Giant",giant foxtail; [11],90
same,"Plant response rating, Foxtail, Giant",giant foxtail; [12],90
same,"Plant response rating, Crabgrass, Large","crabgrass, large; [11]",90
same,"Plant response rating, Crabgrass, Large","crabgrass, large; [12]",90
same,"Plant response rating, Pigweed",pigweed; [11],0
same,"Plant response rating, Pigweed",pigweed; [12],0
same,"Plant response rating, Velvetleaf",velvetleaf; [11],0
same,"Plant response rating, Velvetleaf",velvetleaf; [12],0
same,"Plant response rating, Wheat",wheat; [11],20
same,"Plant response rating, Wheat",wheat; [12],20
same,"Plant response rating, Ducksalad",ducksalad; 250 g ai/ha,0
